Experiments:
[1] = target: Death-associated protein kinase 1 (Homo sapiens) (UniProt P53355); assay: DAPK1 DiscoveRx kinase panel; conditions: Compound concentration 1.0 uM
[2] = target: 5-hydroxytryptamine receptor 3A (Homo sapiens) (UniProt P46098); conditions: Compound concentration 10.0 uM
[3] = target: Fibroblast growth factor receptor 2 (Homo sapiens) (UniProt P21802); assay: FGFR2 DiscoveRx kinase panel; conditions: Compound concentration 1.0 uM
[4] = target: MAO-B (Homo sapiens, UniProt P27338); assay: Inhibition of Monoamine Oxidase MAO-B at compound concentration of 10.0 uM in the Eurofins-Panlabs enzyme assay (Eurofins_assay_140120); parameters: substrate with concentration 50 uM Kynuramine, incubation time 60 min, incubation temperature 37 C; conditions: human recombinant MAO-B expressed in insect Hi5 cells, probe Kynuramine (50 uM), compound concentration 10 uM
Chain of MAO-B (P27338 whole entry): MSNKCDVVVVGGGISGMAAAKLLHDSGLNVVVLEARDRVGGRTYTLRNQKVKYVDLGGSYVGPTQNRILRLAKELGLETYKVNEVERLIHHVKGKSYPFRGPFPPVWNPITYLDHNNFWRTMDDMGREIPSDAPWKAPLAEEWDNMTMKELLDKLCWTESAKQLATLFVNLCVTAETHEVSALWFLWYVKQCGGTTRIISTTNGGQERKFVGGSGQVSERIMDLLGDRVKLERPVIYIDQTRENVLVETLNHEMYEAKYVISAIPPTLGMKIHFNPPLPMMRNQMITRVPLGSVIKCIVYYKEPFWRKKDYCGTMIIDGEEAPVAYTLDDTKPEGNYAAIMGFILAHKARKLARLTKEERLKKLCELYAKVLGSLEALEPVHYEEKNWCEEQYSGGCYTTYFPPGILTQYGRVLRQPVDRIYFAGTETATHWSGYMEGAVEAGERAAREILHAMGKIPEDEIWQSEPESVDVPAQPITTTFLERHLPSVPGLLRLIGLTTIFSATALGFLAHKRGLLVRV

[5] = target: Estrogen receptor (Homo sapiens) (UniProt P03372); conditions: Compound concentration 10.0 uM
[6] = target: Casein kinase I isoform alpha-like (Homo sapiens) (UniProt Q8N752); assay: CSNK1A1L DiscoveRx kinase panel; conditions: Compound concentration 1.0 uM
[7] = target: Mitogen-activated protein kinase kinase kinase 14 (Homo sapiens) (UniProt Q99558); assay: NIK DiscoveRx kinase panel; conditions: Compound concentration 1.0 uM
[8] = target: Serine/threonine-protein kinase Nek10 (Homo sapiens) (UniProt Q6ZWH5); assay: NEK10 DiscoveRx kinase panel; conditions: Compound concentration 1.0 uM
[9] = target: Peroxisome proliferator-activated receptor gamma (Homo sapiens) (UniProt P37231); assay: PPARgamma Eurofins-Panlabs radioligand binding assay; parameters: ligand concentration 5 nM; conditions: Compound concentration 10.0 uM
[10] = target: Type-1 angiotensin II receptor (Homo sapiens) (UniProt P30556); assay: Angiotensin AT1 Eurofins-Panlabs radioligand binding assay; conditions: Compound concentration 10.0 uM
Chain of Type-1 angiotensin II receptor (Homo sapiens) (P30556 whole entry): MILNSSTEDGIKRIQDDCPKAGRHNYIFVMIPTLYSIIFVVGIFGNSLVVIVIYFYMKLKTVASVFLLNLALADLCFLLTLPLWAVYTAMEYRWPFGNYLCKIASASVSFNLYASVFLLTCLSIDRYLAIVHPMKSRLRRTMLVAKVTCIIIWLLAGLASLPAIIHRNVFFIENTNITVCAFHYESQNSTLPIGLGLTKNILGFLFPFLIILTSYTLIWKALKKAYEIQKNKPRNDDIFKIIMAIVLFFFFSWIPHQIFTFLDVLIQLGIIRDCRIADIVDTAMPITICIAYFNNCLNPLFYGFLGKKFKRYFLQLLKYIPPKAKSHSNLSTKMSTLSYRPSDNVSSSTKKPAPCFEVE

[11] = target: MAP kinase-interacting serine/threonine-protein kinase 1 (Homo sapiens) (UniProt Q9BUB5); assay: MKNK1 DiscoveRx kinase panel; conditions: Compound concentration 1.0 uM
[12] = target: Histamine H1 receptor (Homo sapiens) (UniProt P35367); conditions: Compound concentration 10.0 uM
Chain of Histamine H1 receptor (Homo sapiens) (P35367 whole entry): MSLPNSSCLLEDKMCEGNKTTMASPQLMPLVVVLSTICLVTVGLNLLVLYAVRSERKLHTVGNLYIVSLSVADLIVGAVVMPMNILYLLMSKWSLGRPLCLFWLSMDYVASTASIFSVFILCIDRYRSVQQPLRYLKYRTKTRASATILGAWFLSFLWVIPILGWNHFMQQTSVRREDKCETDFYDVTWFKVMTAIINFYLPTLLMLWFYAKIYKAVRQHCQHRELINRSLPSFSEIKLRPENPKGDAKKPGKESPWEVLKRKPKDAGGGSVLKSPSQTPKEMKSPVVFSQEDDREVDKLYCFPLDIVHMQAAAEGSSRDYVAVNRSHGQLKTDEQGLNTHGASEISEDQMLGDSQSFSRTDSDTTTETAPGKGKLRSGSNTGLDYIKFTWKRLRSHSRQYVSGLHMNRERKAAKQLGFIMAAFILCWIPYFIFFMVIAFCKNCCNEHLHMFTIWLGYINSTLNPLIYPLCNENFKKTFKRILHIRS

[13] = target: Transient receptor potential cation channel subfamily M member 6 (Homo sapiens) (UniProt Q9BX84); assay: TRPM6 DiscoveRx kinase panel; conditions: Compound concentration 1.0 uM
[14] = target: Dual specificity protein kinase CLK4 (Homo sapiens) (UniProt Q9HAZ1); assay: CLK4 DiscoveRx kinase panel; conditions: Compound concentration 1.0 uM
[15] = target: Sigma non-opioid intracellular receptor 1 (Homo sapiens, UniProt Q99720); conditions: Compound concentration 10.0 uM
Chain of Sigma non-opioid intracellular receptor 1 (Q99720 whole entry): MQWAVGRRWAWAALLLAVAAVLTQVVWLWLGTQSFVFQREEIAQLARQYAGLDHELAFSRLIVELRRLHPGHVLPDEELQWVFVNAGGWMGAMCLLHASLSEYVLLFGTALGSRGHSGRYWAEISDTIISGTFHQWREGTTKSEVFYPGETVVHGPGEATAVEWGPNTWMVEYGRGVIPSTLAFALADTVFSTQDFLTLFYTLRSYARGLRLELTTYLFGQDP

[16] = target: Activin receptor type-1 (Homo sapiens) (UniProt Q04771); assay: ACVR1 DiscoveRx kinase panel; conditions: Compound concentration 1.0 uM
[17] = target: Serine/threonine-protein kinase pim-1 (Homo sapiens) (UniProt P11309); assay: PIM1 DiscoveRx kinase panel; conditions: Compound concentration 1.0 uM
[18] = target: 5-hydroxytryptamine receptor 1B (Homo sapiens) (UniProt P28222); conditions: Compound concentration 10.0 uM
Chain of 5-hydroxytryptamine receptor 1B (Homo sapiens) (P28222 whole entry): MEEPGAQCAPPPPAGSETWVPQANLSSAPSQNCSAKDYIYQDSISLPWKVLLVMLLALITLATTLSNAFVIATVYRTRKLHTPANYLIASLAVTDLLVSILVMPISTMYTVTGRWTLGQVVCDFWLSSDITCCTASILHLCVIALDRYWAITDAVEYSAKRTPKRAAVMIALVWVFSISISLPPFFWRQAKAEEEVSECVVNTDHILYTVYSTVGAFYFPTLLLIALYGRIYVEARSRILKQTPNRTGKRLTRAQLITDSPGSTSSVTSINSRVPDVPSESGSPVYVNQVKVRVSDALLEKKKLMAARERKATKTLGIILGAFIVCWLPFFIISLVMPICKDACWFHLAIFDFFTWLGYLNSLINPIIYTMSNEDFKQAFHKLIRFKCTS

[19] = target: Histamine H4 receptor (Homo sapiens) (UniProt Q9H3N8); conditions: Compound concentration 10.0 uM
[20] = target: B2 bradykinin receptor (Homo sapiens) (UniProt P30411); assay: Bradykinin B2 Eurofins-Panlabs radioligand binding assay; conditions: Compound concentration 10.0 uM
[21] = target: Activin receptor type-2B (Homo sapiens) (UniProt Q13705); assay: ACVR2B DiscoveRx kinase panel; conditions: Compound concentration 1.0 uM
[22] = target: Serine/threonine-protein kinase B-raf (Homo sapiens) (UniProt P15056); assay: BRAF DiscoveRx kinase panel; conditions: Compound concentration 1.0 uM
[23] = target: Adenosine receptor A2a (Homo sapiens) (UniProt P29274); conditions: Compound concentration 10.0 uM
[24] = target: Bone morphogenetic protein receptor type-1B (Homo sapiens) (UniProt O00238); assay: BMPR1B DiscoveRx kinase panel; conditions: Compound concentration 1.0 uM
Chain of Bone morphogenetic protein receptor type-1B (Homo sapiens) (O00238 whole entry): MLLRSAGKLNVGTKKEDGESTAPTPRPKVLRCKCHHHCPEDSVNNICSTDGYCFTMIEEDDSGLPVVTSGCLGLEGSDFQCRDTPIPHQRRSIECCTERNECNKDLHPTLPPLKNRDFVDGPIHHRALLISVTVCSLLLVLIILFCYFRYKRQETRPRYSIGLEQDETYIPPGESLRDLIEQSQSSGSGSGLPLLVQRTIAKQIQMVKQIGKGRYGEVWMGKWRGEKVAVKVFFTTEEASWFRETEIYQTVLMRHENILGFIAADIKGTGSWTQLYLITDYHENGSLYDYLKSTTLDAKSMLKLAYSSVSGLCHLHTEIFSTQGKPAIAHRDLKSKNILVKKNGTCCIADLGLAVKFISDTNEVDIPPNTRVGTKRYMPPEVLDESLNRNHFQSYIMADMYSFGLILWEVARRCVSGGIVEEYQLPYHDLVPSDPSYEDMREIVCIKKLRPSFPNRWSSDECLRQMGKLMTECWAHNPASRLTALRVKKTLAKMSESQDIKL

[25] = system: SUM149PT; assay: SUM-149 cell line Proliferation assay; format: functional, Homo sapiens; conditions: time 4 day
[26] = target: Cannabinoid receptor 2 (Homo sapiens) (UniProt P34972); conditions: Compound concentration 10.0 uM
[27] = target: Tyrosine-protein kinase receptor Tie-1 (Homo sapiens) (UniProt P35590); assay: TIE1 DiscoveRx kinase panel; conditions: Compound concentration 1.0 uM
[28] = target: Histamine H1 receptor (Homo sapiens) (UniProt P35367); conditions: Compound concentration 10.0 uM; remark: listed apart in the source
[29] = target: Calcium/calmodulin-dependent protein kinase type 1D (Homo sapiens) (UniProt Q8IU85); assay: CAMK1D DiscoveRx kinase panel; conditions: Compound concentration 1.0 uM
Chain of Calcium/calmodulin-dependent protein kinase type 1D (Homo sapiens) (Q8IU85 whole entry, looked up): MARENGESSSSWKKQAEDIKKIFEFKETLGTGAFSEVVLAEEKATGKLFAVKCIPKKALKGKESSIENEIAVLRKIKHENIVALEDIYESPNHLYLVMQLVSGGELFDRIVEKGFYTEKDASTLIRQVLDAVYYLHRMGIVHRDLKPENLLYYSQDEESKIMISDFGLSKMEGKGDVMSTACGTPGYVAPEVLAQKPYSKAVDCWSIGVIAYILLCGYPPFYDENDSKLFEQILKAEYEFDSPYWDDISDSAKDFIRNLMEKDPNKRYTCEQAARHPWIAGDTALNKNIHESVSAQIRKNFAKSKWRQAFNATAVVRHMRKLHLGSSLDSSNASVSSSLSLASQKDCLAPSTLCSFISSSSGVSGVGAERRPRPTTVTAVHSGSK

[30] = target: Serine/threonine-protein kinase D1 (Homo sapiens) (UniProt Q15139); assay: PRKD1 DiscoveRx kinase panel; conditions: Compound concentration 1.0 uM
[31] = target: TGF-beta receptor type-2 (Homo sapiens) (UniProt P37173); assay: TGFBR2 DiscoveRx kinase panel; conditions: Compound concentration 1.0 uM
Chain of TGF-beta receptor type-2 (Homo sapiens) (P37173 whole entry): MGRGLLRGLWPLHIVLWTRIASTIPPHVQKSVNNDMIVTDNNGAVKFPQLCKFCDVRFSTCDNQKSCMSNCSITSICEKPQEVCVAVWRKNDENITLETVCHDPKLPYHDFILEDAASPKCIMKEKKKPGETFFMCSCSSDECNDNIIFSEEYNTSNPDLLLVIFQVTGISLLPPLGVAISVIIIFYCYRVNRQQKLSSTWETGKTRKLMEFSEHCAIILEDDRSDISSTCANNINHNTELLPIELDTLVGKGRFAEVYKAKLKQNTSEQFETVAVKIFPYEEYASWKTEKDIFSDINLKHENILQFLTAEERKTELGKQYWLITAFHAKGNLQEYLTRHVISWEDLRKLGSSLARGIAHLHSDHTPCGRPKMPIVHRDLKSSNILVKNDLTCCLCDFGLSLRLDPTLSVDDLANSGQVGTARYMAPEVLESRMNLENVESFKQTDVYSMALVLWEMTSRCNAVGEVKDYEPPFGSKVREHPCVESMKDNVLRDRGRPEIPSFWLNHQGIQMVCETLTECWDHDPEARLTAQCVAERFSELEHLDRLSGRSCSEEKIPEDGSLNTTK

[32] = target: Mitogen-activated protein kinase kinase kinase kinase 3 (Homo sapiens) (UniProt Q8IVH8); assay: MAP4K3 DiscoveRx kinase panel; conditions: Compound concentration 1.0 uM
Chain of Mitogen-activated protein kinase kinase kinase kinase 3 (Homo sapiens) (Q8IVH8 whole entry): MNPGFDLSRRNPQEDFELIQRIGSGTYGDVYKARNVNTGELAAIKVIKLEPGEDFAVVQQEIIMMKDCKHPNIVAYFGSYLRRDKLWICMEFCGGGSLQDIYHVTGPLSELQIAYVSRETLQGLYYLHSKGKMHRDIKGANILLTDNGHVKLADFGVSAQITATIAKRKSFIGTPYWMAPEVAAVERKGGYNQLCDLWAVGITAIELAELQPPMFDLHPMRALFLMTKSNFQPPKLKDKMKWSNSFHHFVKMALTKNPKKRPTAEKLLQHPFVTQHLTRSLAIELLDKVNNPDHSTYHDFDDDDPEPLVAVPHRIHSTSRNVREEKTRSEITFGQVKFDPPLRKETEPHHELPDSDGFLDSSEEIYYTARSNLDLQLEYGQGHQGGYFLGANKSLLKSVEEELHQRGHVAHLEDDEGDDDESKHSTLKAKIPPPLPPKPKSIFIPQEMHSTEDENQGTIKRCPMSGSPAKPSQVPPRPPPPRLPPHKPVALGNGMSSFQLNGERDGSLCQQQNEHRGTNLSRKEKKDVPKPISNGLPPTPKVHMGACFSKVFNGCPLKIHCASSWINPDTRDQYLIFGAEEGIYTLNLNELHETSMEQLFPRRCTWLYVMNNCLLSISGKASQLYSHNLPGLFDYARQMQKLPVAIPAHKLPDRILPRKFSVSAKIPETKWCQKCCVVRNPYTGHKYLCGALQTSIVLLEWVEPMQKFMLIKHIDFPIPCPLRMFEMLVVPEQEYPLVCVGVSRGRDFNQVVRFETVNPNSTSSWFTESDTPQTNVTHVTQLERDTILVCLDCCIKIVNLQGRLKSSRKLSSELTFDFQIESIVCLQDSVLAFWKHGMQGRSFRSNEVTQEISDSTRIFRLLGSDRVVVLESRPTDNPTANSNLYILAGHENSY

[33] = target: Alpha-1D adrenergic receptor (Homo sapiens) (UniProt P25100); assay: Inhibition of Adrenergic alpha1D at 10 µM in the Eurofins-Panlabs radioligand binding assay (Eurofins_assay_203400); conditions: Compound concentration 10.0 uM
[34] = target: Serine/threonine-protein kinase Nek4 (Homo sapiens) (UniProt P51957); assay: NEK4 DiscoveRx kinase panel; conditions: Compound concentration 1.0 uM
[35] = target: Serine/threonine-protein kinase 17A (Homo sapiens) (UniProt Q9UEE5); assay: DRAK1 DiscoveRx kinase panel; conditions: Compound concentration 1.0 uM
[36] = target: Homeodomain-interacting protein kinase 3 (Homo sapiens) (UniProt Q9H422); assay: HIPK3 DiscoveRx kinase panel; conditions: Compound concentration 1.0 uM
[37] = target: D(3) dopamine receptor (Homo sapiens) (UniProt P35462); conditions: Compound concentration 10.0 uM
[38] = target: Serine/threonine-protein kinase WNK4 (Homo sapiens) (UniProt Q96J92); assay: WNK4 DiscoveRx kinase panel; conditions: Compound concentration 1.0 uM
[39] = target: Tyrosine-protein kinase ABL1 (Homo sapiens) (UniProt P00519); assay: ABL1-nonphosphorylated DiscoveRx kinase panel; conditions: Compound concentration 1.0 uM
[40] = target: Serine/threonine-protein kinase 35 (Homo sapiens) (UniProt Q8TDR2); assay: STK35 DiscoveRx kinase panel; conditions: Compound concentration 1.0 uM
[41] = target: Homeodomain-interacting protein kinase 4 (Homo sapiens) (UniProt Q8NE63); assay: HIPK4 DiscoveRx kinase panel; conditions: Compound concentration 1.0 uM
Chain of Homeodomain-interacting protein kinase 4 (Homo sapiens) (Q8NE63 whole entry): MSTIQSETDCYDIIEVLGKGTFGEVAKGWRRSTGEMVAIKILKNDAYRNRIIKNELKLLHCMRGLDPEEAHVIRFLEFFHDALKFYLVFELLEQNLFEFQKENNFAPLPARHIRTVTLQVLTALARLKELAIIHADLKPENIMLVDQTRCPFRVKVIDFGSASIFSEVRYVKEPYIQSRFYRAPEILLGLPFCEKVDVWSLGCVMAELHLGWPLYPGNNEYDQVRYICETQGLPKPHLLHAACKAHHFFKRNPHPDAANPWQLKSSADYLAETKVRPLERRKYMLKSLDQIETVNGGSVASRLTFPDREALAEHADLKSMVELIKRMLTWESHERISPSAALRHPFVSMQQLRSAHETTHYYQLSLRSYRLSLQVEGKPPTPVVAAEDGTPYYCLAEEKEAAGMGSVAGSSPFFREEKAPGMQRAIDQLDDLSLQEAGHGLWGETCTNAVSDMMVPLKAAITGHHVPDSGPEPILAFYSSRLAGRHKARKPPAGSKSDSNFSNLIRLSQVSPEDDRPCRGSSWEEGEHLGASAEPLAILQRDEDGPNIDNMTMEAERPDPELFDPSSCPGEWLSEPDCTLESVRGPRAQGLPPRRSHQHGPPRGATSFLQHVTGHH

[42] = target: Serine/threonine-protein kinase Sgk2 (Homo sapiens) (UniProt Q9HBY8); assay: SGK2 DiscoveRx kinase panel; conditions: Compound concentration 1.0 uM
[43] = target: cAMP-dependent protein kinase catalytic subunit PRKX (Homo sapiens) (UniProt P51817); assay: PRKX DiscoveRx kinase panel; conditions: Compound concentration 1.0 uM
[44] = target: Serine/threonine-protein kinase RIO2 (Homo sapiens) (UniProt Q9BVS4); assay: RIOK2 DiscoveRx kinase panel; conditions: Compound concentration 1.0 uM
[45] = target: Serine/threonine-protein kinase Nek3 (Homo sapiens) (UniProt P51956); assay: NEK3 DiscoveRx kinase panel; conditions: Compound concentration 1.0 uM
[46] = target: Rhodopsin kinase GRK1 (Homo sapiens) (UniProt Q15835); assay: GRK1 DiscoveRx kinase panel; conditions: Compound concentration 1.0 uM
[47] = target: Bone morphogenetic protein receptor type-2 (Homo sapiens) (UniProt Q13873); assay: BMPR2 DiscoveRx kinase panel; conditions: Compound concentration 1.0 uM
[48] = target: Death-associated protein kinase 3 (Homo sapiens) (UniProt O43293); assay: DAPK3 DiscoveRx kinase panel; conditions: Compound concentration 1.0 uM

Structure (SMILES): COc1cnccc1Nc1nc(-c2nn(Cc3c(F)cc(OCCO)cc3F)c3ccccc23)ncc1OC
- residual activity [1]: 100%
- inhibition [2]: -8.58%
- residual activity [3]: 100%
- inhibition at 60 min, 10 µM [4]: -15% (not active)
- inhibition [5]: 10%
- residual activity [6]: 89%
- residual activity [7]: 100%
- residual activity [8]: 100%
- inhibition [9]: -8%
- inhibition [10]: -2%
- residual activity [11]: 100%
- inhibition [12]: 16.9%
- residual activity [13]: 82%
- residual activity [14]: 83%
- inhibition [15]: 4.34%
- residual activity [16]: 98%
- residual activity [17]: 100%
- inhibition [18]: 11.8%
- inhibition [19]: 39.3%
- inhibition [20]: 0%
- residual activity [21]: 94%
- residual activity [22]: 99%
- inhibition [23]: 67%
- residual activity [24]: 100%
- Cell Proliferation IC50 [25]: 0.64 µM
- inhibition [26]: 31%
- residual activity [27]: 65%
- inhibition [28]: 12%
- residual activity [29]: 83%
- residual activity [30]: 100%
- residual activity [31]: 100%
- residual activity [32]: 100%
- inhibition [33]: 24%
- residual activity [34]: 99%
- residual activity [35]: 95%
- residual activity [36]: 100%
- inhibition [37]: 1.89%
- residual activity [38]: 63%
- residual activity [39]: 87%
- residual activity [40]: 99%
- residual activity [41]: 90%
- residual activity [42]: 100%
- residual activity [43]: 100%
- residual activity [44]: 100%
- residual activity [45]: 100%
- residual activity [46]: 100%
- residual activity [47]: 100%
- residual activity [48]: 84%

Reference: ChEMBL document CHEMBL5058649, “Data for DCP probe BAY 1816032” (2022)
